According to patent US20250152585A1, “PHARMACEUTICAL COMPOUND” (Duke Street Bio Limited, priority 2022, published 2025):
Read-outs that look alike come from different tables or passages of the source.

Assays:
[1] = target: T1, full length N-terminally FLAG-tagged PARP1 (Homo sapiens, UniProt P09874); experiment: PARP1 biochemical DELFIA assay (auto-PARylation); set-up: recombinant full length human N-terminally FLAG-tagged PARP1
[2] = target: T1, full length N-terminally FLAG-tagged PARP1; experiment: PARP1 probe displacement HTRF assay; conditions: for Selectivity: PARP1 over PARP2, ratio Kd (PARP2)/Kd (PARP1); for Kd: binned Kd
[3] = target: T2, N-terminally FLAG-tagged PARP2 (amino acids 1-583) (Homo sapiens, UniProt Q9UGN5); experiment: PARP2 probe displacement HTRF assay; type: binding; conditions: binned Kd
T2 construct: N-terminally FLAG-tagged PARP2 (amino acids 1-583)
Description: Data analysis was performed identical as for PARP1.

[4] = binned IC50, PARP1 biochemical DELFIA assay
[5] = read-out: PARP1 HTRF, PARP1 probe displacement HTRF
[6] = binned IC50, biochemical auto-PARylation assay
[7] = read-out: PARP1 HTRF, probe displacement HTRF
[8] = PARP1 HTRF, PARP1 probe displacement HTRF
[9] = PARP1 HTRF, probe displacement HTRF

T1 sequence (P09874 whole entry): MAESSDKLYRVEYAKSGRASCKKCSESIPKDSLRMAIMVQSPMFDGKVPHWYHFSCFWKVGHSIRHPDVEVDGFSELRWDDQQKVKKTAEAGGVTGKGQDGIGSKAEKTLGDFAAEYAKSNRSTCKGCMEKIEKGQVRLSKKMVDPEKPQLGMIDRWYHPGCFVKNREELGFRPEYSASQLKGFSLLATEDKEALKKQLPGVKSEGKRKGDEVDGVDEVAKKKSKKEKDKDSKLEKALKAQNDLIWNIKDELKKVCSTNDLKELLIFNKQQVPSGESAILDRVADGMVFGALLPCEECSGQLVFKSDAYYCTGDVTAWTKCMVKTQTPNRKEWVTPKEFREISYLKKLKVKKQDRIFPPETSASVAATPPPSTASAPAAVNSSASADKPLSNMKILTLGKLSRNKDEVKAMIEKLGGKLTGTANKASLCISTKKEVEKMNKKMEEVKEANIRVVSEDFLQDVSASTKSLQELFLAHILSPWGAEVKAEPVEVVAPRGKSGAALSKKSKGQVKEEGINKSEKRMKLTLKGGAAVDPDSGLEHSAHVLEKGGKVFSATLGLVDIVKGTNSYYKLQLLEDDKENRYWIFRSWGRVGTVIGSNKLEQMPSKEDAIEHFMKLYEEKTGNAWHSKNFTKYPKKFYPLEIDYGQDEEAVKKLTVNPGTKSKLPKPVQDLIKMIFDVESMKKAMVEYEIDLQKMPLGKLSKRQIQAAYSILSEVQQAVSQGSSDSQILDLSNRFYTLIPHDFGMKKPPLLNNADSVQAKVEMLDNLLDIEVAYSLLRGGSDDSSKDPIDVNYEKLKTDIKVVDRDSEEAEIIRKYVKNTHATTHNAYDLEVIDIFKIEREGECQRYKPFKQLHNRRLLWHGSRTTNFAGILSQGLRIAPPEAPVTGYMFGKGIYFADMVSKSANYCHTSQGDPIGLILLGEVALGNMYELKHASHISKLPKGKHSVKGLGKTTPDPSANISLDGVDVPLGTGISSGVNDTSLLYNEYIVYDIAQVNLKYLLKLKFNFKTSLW
T2 sequence (Q9UGN5 whole entry, the tested form may be a part): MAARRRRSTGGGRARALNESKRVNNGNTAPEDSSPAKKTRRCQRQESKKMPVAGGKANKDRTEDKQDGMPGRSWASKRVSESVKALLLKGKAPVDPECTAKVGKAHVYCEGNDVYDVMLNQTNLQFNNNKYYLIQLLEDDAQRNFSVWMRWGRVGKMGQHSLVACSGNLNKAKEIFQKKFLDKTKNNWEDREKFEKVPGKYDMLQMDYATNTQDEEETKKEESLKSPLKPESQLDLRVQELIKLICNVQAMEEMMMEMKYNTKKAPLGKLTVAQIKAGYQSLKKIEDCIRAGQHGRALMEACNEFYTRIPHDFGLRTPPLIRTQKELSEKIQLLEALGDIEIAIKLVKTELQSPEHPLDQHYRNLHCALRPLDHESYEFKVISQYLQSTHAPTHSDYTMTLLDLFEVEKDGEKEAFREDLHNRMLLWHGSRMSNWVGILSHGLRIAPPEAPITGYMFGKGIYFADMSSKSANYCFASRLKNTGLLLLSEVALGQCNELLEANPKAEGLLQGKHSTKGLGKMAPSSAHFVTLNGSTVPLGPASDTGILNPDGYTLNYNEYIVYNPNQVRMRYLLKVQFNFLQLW

IC50 [1, 4] | Kd [2, 5] | Kd ([3]; PARP2 probe displacement HTRF) | IC50 [1, 6] | Kd [2, 7] | Kd ([3]; probe displacement HTRF) | Kd [2, 8] | Kd [2, 9] | SMILES | Selectivity ([2]; probe displacement HTRF)
– | – | – | 100 to 1000 nM | 100 to 1000 nM | 1000 to 10000 nM | – | – | CC(=O)Nc1ccc(N2CCC(N3CCC(c4cc5ccccc5c(=O)[nH]4)C3)CC2)cn1 (single isomer, unassigned) [Compound 306a] | + (+ indicates a value of 10 to less than 50)
– | – | – | 10 to 100 nM | 10 to 100 nM | 1000 to 10000 nM | – | – | CNC(=O)c1ccc(N2CCC(N3CCC(c4[nH]c(=O)c5ccccc5c4C(F)(F)F)C3)CC2)cn1 (single isomer, unassigned) [Compound 404a] | +++ (+++ indicate a value of at least 100)
– | – | – | < 10 nM | < 10 nM | 100 to 1000 nM | – | – | CCc1ccc(C2CCN(C3CCN(c4ccc(C(=O)NC5CC5)nc4)CC3)C2)[nH]c1=O (single isomer, unassigned) [Compound 338a] | +++ (+++ indicate a value of at least 100)
– | – | – | < 10 nM | – | 1000 to 10000 nM | – | < 10 nM | CNC(=O)c1ccc(N2CCC(N3CC4(c5nc6c(c(=O)[nH]5)COCC6)CC3C4)CC2)cn1 [Compound 373] | +++ (+++ indicate a value of at least 100)
– | – | – | 100 to 1000 nM | 100 to 1000 nM | > 10000 nM | – | – | CNC1(c2ccc(N3CCC(N4CCC(c5nc6ccccc6c(=O)[nH]5)C4)CC3)cn2)CC1 (racemic) [Compound 412rac] | + (+ indicates a value of 10 to less than 50)
– | – | – | < 10 nM | < 10 nM | 100 to 1000 nM | – | – | CCc1ccc(C2CCN(C3CCN(c4cnc(C(=O)NC5CC5)c(F)c4)CC3)C2)[nH]c1=O (single isomer, unassigned) [Compound 408a] | +++ (+++ indicate a value of at least 100)
– | – | – | < 10 nM | – | > 10000 nM | – | < 10 nM | N#Cc1ccc(N2CCC(N3CC4(c5nc6ccc(F)cc6c(=O)[nH]5)CC3C4)CC2)c(F)c1 [Compound 380] | +++ (+++ indicate a value of at least 100)
– | – | – | < 10 nM | < 10 nM | 100 to 1000 nM | – | – | N#Cc1ccc(N2CCC(N3CCC(c4cc5ccc(F)cc5c(=O)[nH]4)C3)CC2)c(Cl)c1 (single isomer, unassigned) [Compound 386a] | +++ (+++ indicate a value of at least 100)
– | – | – | < 10 nM | < 10 nM | 100 to 1000 nM | – | – | O=C(NCC(F)F)c1ccc(N2CCC(N3CCC(c4cc5cccc(F)c5c(=O)[nH]4)C3)CC2)c(F)n1 (single isomer, unassigned) [Compound 390a] | +++ (+++ indicate a value of at least 100)
– | – | – | 10 to 100 nM | 10 to 100 nM | 100 to 1000 nM | – | – | CCc1ccc(C2CCN(C3CCN(c4ccc(C(=O)NC)c(F)c4)CC3)C2)[nH]c1=O (racemic) [Compound 282rac] | + (+ indicates a value of 10 to less than 50)

More lines, now with the values behind:

SMILES | IC50 [1, 4] | Kd [2, 5] | Kd ([3]; PARP2 probe displacement HTRF) | IC50 [1, 6] | Kd [2, 7] | Kd ([3]; probe displacement HTRF) | Kd [2, 8] | Kd [2, 9] | Selectivity ([2]; probe displacement HTRF)
O=c1[nH]c(C2CCCN(C3CCN(c4ccc(F)cc4F)CC3)C2)nc2ccccc12 (single isomer, unassigned) [Compound 113a] | 100 to 1000 nM | 100 to 1000 nM | 100 to 1000 nM | – | – | – | – | – | − (− indicates a value of less than 10)
CCNC(=O)c1ccc(N2CCC(N3CCCC(c4nc5ccccc5c(=O)[nH]4)C3)CC2)cn1 (single isomer, unassigned) [Compound 122b] | 10 to 100 nM | 100 to 1000 nM | 1000 to 10000 nM | – | – | – | – | – | − (− indicates a value of less than 10)
CNC(=O)c1ccc(N2CCC(N3CCC(c4ccc(CC(F)(F)F)c(=O)[nH]4)C3)CC2)cn1 (racemic) [Compound 243rac] | – | – | – | 10 to 100 nM | 10 to 100 nM | > 10000 nM | – | – | ++ (++ indicates a value of 50 to less than 100)
CCc1ccc(C2CCN(C3CCN(c4cnc(C(=O)NC)nc4Cl)CC3)C2)[nH]c1=O (racemic) [Compound 242rac] | – | – | – | < 10 nM | < 10 nM | 100 to 1000 nM | – | – | ++ (++ indicates a value of 50 to less than 100)
CNC(=O)c1ccc(N2CCC(N3CCOC(c4nc5ccccc5c(=O)[nH]4)C3)CC2)cn1 (single isomer, unassigned) [Compound 58a] | < 10 nM | < 10 nM | > 10000 nM | – | – | – | – | – | +++ (+++ indicate a value of at least 100)
CNC(=O)c1ccc(OCCCN2CCC(c3nc4ccccc4c(=O)[nH]3)CC2)cn1 [Compound 2, N-methyl-5-(3-(4-(4-oxo-3,4-dihydroquinazolin-2-yl)piperidin-1-yl)propoxy)picolinamide] | < 10 nM | – | 1000 to 10000 nM | – | – | – | < 10 nM | – | +++ (+++ indicate a value of at least 100)
CNC(=O)c1ccc(N2CCC(N3CCC(c4nc5ccccc5c(=O)[nH]4)C3)CC2)c(C(F)(F)F)n1 (single isomer, unassigned) [Compound 139a] | < 10 nM | < 10 nM | 1000 to 10000 nM | – | – | – | – | – | +++ (+++ indicate a value of at least 100)
CNC(=O)c1ccc(N2CCC(N3CCC(c4nc5c(c(=O)[nH]4)CCCN5C)C3)CC2)cn1 (single isomer, unassigned) [Compound 208b, N-methyl-5-(4-(3-(8-methyl-4-oxo-3,4,5,6,7,8-hexahydropyrido[2,3-d]pyrimidin-2-yl)pyrrolidin-1-yl)piperidin-1-yl)picolinamide] | < 10 nM | – | 10 to 100 nM | – | – | – | < 10 nM | – | ++ (++ indicates a value of 50 to less than 100)
CNC(=O)c1cnc(N2CCC(N3CCC(c4nc5ccccc5c(=O)[nH]4)C3)CC2)cn1 (single isomer, unassigned) [Compound 96b] | 100 to 1000 nM | 100 to 1000 nM | 100 to 1000 nM | – | – | – | – | – | − (− indicates a value of less than 10)
CNC(=O)c1ccc(N2CCC(N3CCC(c4nc5sc6c(c5c(=O)[nH]4)CCC6)C3)CC2)cn1 (single isomer, unassigned) [Compound 189a] | 10 to 100 nM | 10 to 100 nM | 100 to 1000 nM | – | – | – | – | – | − (− indicates a value of less than 10)
CNC(=O)c1ccc(N2CCC(N3CCC(c4cc5ccc(F)cc5c(=O)[nH]4)C3)CC2)cn1 (single isomer, unassigned) [Compound 154a, 5-(4-(3-(7-fluoro-1-oxo-1,2-dihydroisoquinolin-3-yl)pyrrolidin-1-yl)piperidin-1-yl)-N-methylpicolinamide] | < 10 nM | – | 100 to 1000 nM | – | – | – | < 10 nM | – | +++ (+++ indicate a value of at least 100)
CNC(=O)c1ccc(N2CCC(N3CCC(c4nc5cc(F)ccc5c(=O)[nH]4)C3)CC2)cn1 (single isomer, unassigned) [Compound 92a] | 100 to 1000 nM | 100 to 1000 nM | > 10000 nM | – | – | – | – | – | + (+ indicates a value of 10 to less than 50)
N#Cc1ccc(N2CCC(N3CCC(c4nc5ccccc5c(=O)[nH]4)C3)CC2)cc1 (single isomer, unassigned) [Compound 34b] | < 10 nM | < 10 nM | 1000 to 10000 nM | – | – | – | – | – | +++ (+++ indicate a value of at least 100)
CNC(=O)c1ccc(N2CCC(N3CC(c4nc5ccccc5c(=O)[nH]4)C3)CC2)cn1 [Compound 27] | 10 to 100 nM | – | 1000 to 10000 nM | – | – | – | 10 to 100 nM | – | + (+ indicates a value of 10 to less than 50)
N#Cc1ccc(N2CCC(N3CCC(c4nc5ccccc5c(=O)[nH]4)C3)CC2)cn1 (single isomer, unassigned) [Compound 69b] | 10 to 100 nM | 10 to 100 nM | 100 to 1000 nM | – | – | – | – | – | − (− indicates a value of less than 10)
CNC(=O)c1cc(C)c(N2CCC(N3CCC(c4cc5ccccc5c(=O)[nH]4)C3)CC2)c(C)n1 (single isomer, unassigned) [Compound 205b] | 10 to 100 nM | 10 to 100 nM | 1000 to 10000 nM | – | – | – | – | – | + (+ indicates a value of 10 to less than 50)
CNC(=O)c1ccc(N2CCC(N3CCC(c4nc(C)cc(=O)[nH]4)C3)CC2)cn1 (single isomer, unassigned) [Compound 97a] | > 10000 nM | > 10000 nM | > 10000 nM | – | – | – | – | – | − (− indicates a value of less than 10)
NC(=O)c1ccc(N2CCC(N3CCCC(c4nc5ccccc5c(=O)[nH]4)C3)CC2)cn1 (single isomer, unassigned) [Compound 109a] | 10 to 100 nM | < 10 nM | > 10000 nM | – | – | – | – | – | +++ (+++ indicate a value of at least 100)
CNC(=O)c1ccc(N2CCC(N3CCC(c4cc5c(c(C(F)(F)F)nn5C)c(=O)[nH]4)C3)CC2)cn1 (racemic) [Compound 244rac] | – | – | – | < 10 nM | < 10 nM | < 10 nM | – | – | − (− indicates a value of less than 10)
CNC(=O)c1ccc(N2CCC(N3CCC(c4nc5c(F)cccc5c(=O)[nH]4)C3)CC2)cn1 (single isomer, unassigned) [Compound 121a] | 10 to 100 nM | 10 to 100 nM | 100 to 1000 nM | – | – | – | – | – | + (+ indicates a value of 10 to less than 50)
CS(=O)(=O)Nc1ccc(N2CCC(N3CCC(c4nc5ccccc5c(=O)[nH]4)C3)CC2)cc1 (single isomer, unassigned) [Compound 250b] | – | – | – | 10 to 100 nM | 10 to 100 nM | 100 to 1000 nM | – | – | + (+ indicates a value of 10 to less than 50)
CNC(=O)c1ccc(N2CCC(N3CCC(c4nc5ccccc5c(=O)[nH]4)C3)CC2)nc1 (single isomer, unassigned) [Compound 46b] | 100 to 1000 nM | 100 to 1000 nM | 100 to 1000 nM | – | – | – | – | – | − (− indicates a value of less than 10)
